Results taken from patent US10131652B2, “Pyrimidinyloxy benzene derivatives as herbicides” (E. I. DU PONT DE NEMOURS AND COMPANY, priority 2014, dated 2018).

Experiments:
Format in all cases: in vivo
[1] = test system: ducksalad (Heteranthera limosa); experiment: Test C flooded paddy test plant response; settings: Heteranthera limosa; Flood, 250 g ai/ha; scale of 0 to 100 where 0 is no effect and 100 is complete control; 13 to 15 days; read-out: Ducksalad plant response rating
Outline: (§1)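 Visual injury ratings (0, no effect; 100, complete control) were assigned after 13 to 15 days in a greenhouse, comparing treated plants with controls. Compounds had been added straight into paddy water over 2-leaf-stage plants flooded to 3 cm.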

[2] = test system: barnyardgrass (Echinochloa crus-galli); experiment: Test C flooded paddy test plant response; settings: Echinochloa crus-galli; Flood, 250 g ai/ha; scale of 0 to 100 where 0 is no effect and 100 is complete control; 13 to 15 days; read-out: Barnyardgrass plant response rating
Outline: as §1

[3] = test system: small-flower umbrella sedge (Cyperus difformis); experiment: Test C flooded paddy test plant response; settings: Cyperus difformis; Flood, 250 g ai/ha; scale of 0 to 100 where 0 is no effect and 100 is complete control; 13 to 15 days; read-out: Sedge, Umbrella plant response rating
Outline: as §1

rice (Oryza sativa) = experiment: Test C flooded paddy test plant response; settings: Oryza sativa; Flood, 250 g ai/ha; scale of 0 to 100 where 0 is no effect and 100 is complete control; 13 to 15 days; read-out: Rice plant response rating
Outline: as §1

[4] = test system: velvetleaf (Abutilon theophrasti); experiment: Test D pre-/postemergence plant response; settings: Abutilon theophrasti, pre-emergence, Preemergence, scale 0 to 100 (0 no effect, 100 complete control), read-out: Plant response rating, Velvetleaf
Outline: (§2)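 Each compound, in non-phytotoxic solvent with surfactant, was sprayed onto soil right after sowing or onto young plants 2 to 18 cm tall. After 13 to 15 days under greenhouse conditions, effects were judged visually against controls on a 0 (no effect) to 100 (complete control) scale.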

[5] = test system: oilseed rape (Brassica napus); experiment: Test D pre-/postemergence plant response; settings: Brassica napus, pre-emergence, Preemergence, scale 0 to 100 (0 no effect, 100 complete control), read-out: Plant response rating, Oilseed Rape
Outline: as §2

[6] = test system: giant foxtail (Setaria faberii); experiment: Test D pre-/postemergence plant response; settings: Setaria faberi, pre-emergence, Preemergence, scale 0 to 100 (0 no effect, 100 complete control), read-out: Plant response rating, Foxtail, Giant
Outline: as §2

[7] = test system: blackgrass (Alopecurus myosuroides); experiment: Test D pre-/postemergence plant response; settings: Alopecurus myosuroides, pre-emergence, Preemergence, scale 0 to 100 (0 no effect, 100 complete control), read-out: Plant response rating, Blackgrass
Outline: as §2

[8] = test system: pigweed (Amaranthus retroflexus); experiment: Test D pre-/postemergence plant response; settings: Amaranthus retroflexus, pre-emergence, Preemergence, scale 0 to 100 (0 no effect, 100 complete control), read-out: Plant response rating, Pigweed
Outline: as §2

[9] = test system: barnyardgrass (Echinochloa crus-galli); experiment: Test D pre-/postemergence plant response; settings: Echinochloa crus-galli, pre-emergence, Preemergence
Outline: as §2

[10] = test system: johnsongrass (Sorghum halepense); experiment: Test D pre-/postemergence plant response; settings: Sorghum halepense, pre-emergence, Preemergence, scale 0 to 100 (0 no effect, 100 complete control), read-out: Plant response rating, Johnsongrass
Outline: as §2

In the case of `FCc1cc(-c2ccccc2Oc2ncc(Cl)cn2)no1` [Compound 32, 5-chloro-2-[2-[5-(fluoromethyl)-3-isoxazolyl]phenoxy]pyrimidine], the pest or weed control at 250 g/ha [1] is reported as 90%, the pest or weed control at 250 g/ha [2] is reported as 0% and the pest or weed control at 250 g/ha [3] is reported as 85%. For the same compound, the plant injury at 250 g/ha (rice (Oryza sativa)) was 20%, the pest or weed control at 8 g/ha ([4]; 8 g ai/ha) was 5% and the pest or weed control at 16 g/ha ([4]; 16 g ai/ha) was 40%. The pest or weed control at 31 g/ha ([4]; 31 g ai/ha) was 55%, the pest or weed control at 62 g/ha ([4]; 62 g ai/ha) was 85% and the plant injury at 8 g/ha ([5]; 8 g ai/ha) was 50%. For the same compound, the plant injury at 16 g/ha ([5]; 16 g ai/ha) was 80%, the plant injury at 31 g/ha ([5]; 31 g ai/ha) was 100% and the plant injury at 62 g/ha ([5]; 62 g ai/ha) was 100%. For the same compound, the pest or weed control at 8 g/ha ([6]; 8 g ai/ha) was 0%, the pest or weed control at 16 g/ha ([6]; 16 g ai/ha) was 35% and the pest or weed control at 31 g/ha ([6]; 31 g ai/ha) was 85%. The pest or weed control at 62 g/ha ([6]; 62 g ai/ha) was 95%, the pest or weed control at 8 g/ha ([7]; 8 g ai/ha) was 0% and the pest or weed control at 16 g/ha ([7]; 16 g ai/ha) was 0%. The pest or weed control at 31 g/ha ([7]; 31 g ai/ha) was 30%, the pest or weed control at 62 g/ha ([7]; 62 g ai/ha) was 35% and the pest or weed control at 8 g/ha ([8]; 8 g ai/ha) was 100%. The pest or weed control at 16 g/ha ([8]; 16 g ai/ha) was 100%, the pest or weed control at 31 g/ha ([8]; 31 g ai/ha) was 98% and the pest or weed control at 62 g/ha ([8]; 62 g ai/ha) was 100%. For the same compound, the pest or weed control at 62 g/ha ([9]; 62 g ai/ha, read-out: Plant response rating (scale 0 to 100), Barnyardgrass) was 98%, the pest or weed control at 8 g/ha ([9]; 8 g ai/ha, scale 0 to 100 (0 no effect, 100 complete control), read-out: Plant response rating, Barnyardgrass) was 0% and the pest or weed control at 16 g/ha ([9]; 16 g ai/ha, scale 0 to 100 (0 no effect, 100 complete control), read-out: Plant response rating, Barnyardgrass) was 5%. It also gave a pest or weed control at 31 g/ha ([9]; 31 g ai/ha, scale 0 to 100 (0 no effect, 100 complete control), read-out: Plant response rating, Barnyardgrass) of 55%, a pest or weed control at 8 g/ha ([10]; 8 g ai/ha) of 0% and a pest or weed control at 16 g/ha ([10]; 16 g ai/ha) of 45%. For the same compound, the pest or weed control at 31 g/ha ([10]; 31 g ai/ha) was 75% and the pest or weed control at 62 g/ha ([10]; 62 g ai/ha) was 85%.
